Reference: PubChem BioAssay AID192 (DTP/NCI, 2004)
Several values for one entry are separate records, joined by “and”; a condition that tells them apart may be missing. Equal entries are not always repeated. Toxic doses and inconclusive results are not listed.

System: BDF1 mice, B16 melanoma ip, median survival T/C
Assay: NCI In Vivo Anticancer Drug Screen. Data for tumor model B16 Melanoma (intraperitoneal) in B6D2F1 (BDF1) mice
Conditions: endpoint: median survival time, higher = longer survival
Method in brief: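 Antitumor activity is assessed in mice bearing a transplanted tumor, with survival or tumor size compared against vehicle-dosed controls and expressed as T/C.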

[1] = dose: 100.0 mg/kg/injection, schedule: Q01DX009 (ip), vehicle: Klucel (hydroxypropylcellulose) (HPC)
[2] = dose: 200.0 mg/kg/injection, schedule: Q01DX009 (ip), vehicle: Klucel (hydroxypropylcellulose) (HPC)
[3] = dose: 50.0 mg/kg/injection, schedule: Q01DX009 (ip), vehicle: saline with Tween-80
[4] = dose: 100.0 mg/kg/injection, schedule: Q01DX009 (ip), vehicle: saline with Tween-80
[5] = dose: 200.0 mg/kg/injection, schedule: Q01DX009 (ip), vehicle: saline with Tween-80
[6] = dose: 25.0 mg/kg/injection, schedule: Q01DX009 (ip), vehicle: Klucel (hydroxypropylcellulose) (HPC)
[7] = dose: 50.0 mg/kg/injection, schedule: Q01DX009 (ip), vehicle: Klucel (hydroxypropylcellulose) (HPC)
[8] = dose: 12.5 mg/kg/injection, schedule: Q01DX009 (ip), vehicle: saline with Tween-80
[9] = dose: 25.0 mg/kg/injection, schedule: Q01DX009 (ip), vehicle: saline with Tween-80
[10] = dose: 0.19 mg/kg/injection, schedule: Q01DX009 (ip), vehicle: saline
[11] = dose: 0.39 mg/kg/injection, schedule: Q01DX009 (ip), vehicle: saline
[12] = dose: 0.78 mg/kg/injection, schedule: Q01DX009 (ip), vehicle: saline
[13] = dose: 1.56 mg/kg/injection, schedule: Q01DX009 (ip), vehicle: saline
[14] = dose: 3.12 mg/kg/injection, schedule: Q01DX009 (ip), vehicle: saline
[15] = dose: 6.25 mg/kg/injection, schedule: Q01DX009 (ip), vehicle: saline
[16] = dose: 12.5 mg/kg/injection, schedule: Q01DX009 (ip), vehicle: saline
[17] = dose: 6.25 mg/kg/injection, schedule: Q01DX009 (ip), vehicle: saline with Tween-80
[18] = dose: 3.13 mg/kg/injection, schedule: Q01DX009 (ip), vehicle: saline with Tween-80
[19] = dose: 100.0 mg/kg/injection, schedule: Q04DX003 (ip), vehicle: saline with Tween-80
[20] = dose: 200.0 mg/kg/injection, schedule: Q04DX003 (ip), vehicle: saline with Tween-80

`CC(=O)OC1C(C)OC(OC(=O)C2CCC3C(C2)OC2(CC(OC(=O)/C=C/c4ccccc4)C(C)CO2)C32CO2)C(OC2OC(C)C(O)C(OC(C)=O)C2O)C1O` (stereo unspecified) was tested, and the T/C (dose: 6.0 mg/kg/injection, schedule: Q01DX009 (ip), vehicle: saline + alcohol) was 152 % of control, the T/C (dose: 12.0 mg/kg/injection, schedule: Q01DX009 (ip), vehicle: saline + alcohol) was 186 % of control and the T/C (dose: 24.0 mg/kg/injection, schedule: Q01DX009 (ip), vehicle: saline + alcohol) was 205 % of control. The T/C (dose: 48.0 mg/kg/injection, schedule: Q01DX009 (ip), vehicle: saline + alcohol) was 193 % of control.
`NC(=O)c1cc([N+](=O)[O-])c(Cl)c([N+](=O)[O-])c1Cl` was tested, and the T/C (dose: 4.0 mg/kg/injection, schedule: Q01DX009 (ip), vehicle: Klucel (hydroxypropylcellulose) (HPC)) was 93 % of control and the T/C (dose: 8.0 mg/kg/injection, schedule: Q01DX009 (ip), vehicle: Klucel (hydroxypropylcellulose) (HPC)) was 92 % of control.
In the case of `COc1cc(NS(C)(=O)=O)ccc1Nc1c2ccc([N+](=O)[O-])cc2nc2c(C)cccc12`, the T/C (dose: 0.08 mg/kg/injection, schedule: Q01DX009 (ip), vehicle: saline with Tween-80) was 105 % of control, the T/C (dose: 0.15 mg/kg/injection, schedule: Q01DX009 (ip), vehicle: saline with Tween-80) was 107 % of control and the T/C (dose: 0.6 mg/kg/injection, schedule: Q01DX009 (ip), vehicle: saline with Tween-80) was 122 % of control.
`CC(=O)CC(=O)Nc1cccc(C)c1C` was tested, and the T/C [1] was 94 % of control, the T/C [2] was 86 % of control and the T/C (dose: 400.0 mg/kg/injection, schedule: Q01DX009 (ip), vehicle: Klucel (hydroxypropylcellulose) (HPC)) was 94 % of control.
In the case of `CC(=O)N\C(N)=N/N=C\C(C)=N/N=C(\N)NC(C)=O`, the T/C [3] was 108 % of control, the T/C [4] was 99 % of control and the T/C [5] was 94 % of control.
`CC(C)(C)OC(=O)CCC(NC(=O)OCc1ccccc1)C(=O)NN` (stereo unspecified) was tested, and the T/C (dose: 75.0 mg/kg/injection, schedule: Q04DX003 (ip), vehicle: Klucel (hydroxypropylcellulose) (HPC)) was 97 % of control, the T/C (dose: 150.0 mg/kg/injection, schedule: Q04DX003 (ip), vehicle: Klucel (hydroxypropylcellulose) (HPC)) was 100 % of control and the T/C (dose: 300.0 mg/kg/injection, schedule: Q04DX003 (ip), vehicle: Klucel (hydroxypropylcellulose) (HPC)) was 97 % of control.
With `CC(=O)NC(C=O)C(O)C(O)C(O)C(=O)O` (stereo unspecified) the T/C [6] was 101 % of control, the T/C [7] was 100 % of control and the T/C [1] was 92 % of control.
`O=C(/C(=C\c1ccccc1)CN1CCOCC1)c1ccc(Br)cc1` was tested, and the T/C [8] was 91 % of control, the T/C [9] was 94 % of control and the T/C [3] was 94 % of control. The T/C [4] was 89 % of control.
`Cc1ccc2c(c1)n([O-])c1cc(Cl)ccc1[n+]2=O` was tested, and the T/C [8] was 115 % of control and the T/C [4] was 122 % of control.
With `Nc1c2c(nc3ccccc13)CCCC2` the T/C [10] was 95 % of control, the T/C [11] was 95 % of control and the T/C [12] was 100 % of control. The T/C [13] was 95 % of control, the T/C [14] was 102 % of control and the T/C [15] was 91 % of control. The T/C [16] was 100 % of control.
For `COc1ccccc1N1C(=O)C=CC1=O`, the T/C (dose: 0.63 mg/kg/injection, schedule: Q01DX009 (ip), vehicle: saline with Tween-80) was 93 % of control, the T/C (dose: 1.25 mg/kg/injection, schedule: Q01DX009 (ip), vehicle: saline with Tween-80) was 89 % of control and the T/C (dose: 2.5 mg/kg/injection, schedule: Q01DX009 (ip), vehicle: saline with Tween-80) was 87 % of control.
`BrCC[Se]c1ccccc1` was tested, and the T/C [17] was 103 % of control, the T/C [8] was 95 % of control and the T/C [9] was 96 % of control. The T/C [3] was 104 % of control and the T/C [4] was 89 % of control.
For `CO[C@@H]1[C@H](O)CC[C@]2(CO2)[C@H]1[C@@]1(C)O[C@@H]1CC=C(C)C`, the T/C [18] was 104 % of control, the T/C [17] was 102 % of control and the T/C [8] was 102 % of control. The T/C [9] was 108 % of control and the T/C [3] was 123 % of control.
With `O=C1c2ccccc2-c2ncccc21` the T/C [7] was 100 % of control, the T/C [1] was 87 % of control and the T/C [2] was 96 % of control.
With `COc1ccc2c(=O)c(C)c(-c3ccccc3)oc2c1CN(C)C` the T/C [10] was 95 % of control, the T/C [11] was 103 % of control and the T/C [12] was 100 % of control. For the same molecule, the T/C [13] was 96 % of control.
`C/C=C/C(=O)OCC1CCN(C)C1` (stereo unspecified) was tested, and the T/C (dose: 50.0 mg/kg/injection, schedule: Q01DX009 (ip), vehicle: water) was 98 % of control, the T/C (dose: 100.0 mg/kg/injection, schedule: Q01DX009 (ip), vehicle: water) was 107 % of control and the T/C (dose: 200.0 mg/kg/injection, schedule: Q01DX009 (ip), vehicle: water) was 90 % of control.
In the case of `Cc1cc(C(=O)NNC(C)Cc2ccccc2)no1` (stereo unspecified), the T/C (dose: 4.6 mg/kg/injection, schedule: Q01DX009 (ip), vehicle: saline) was 95 % of control, the T/C (dose: 9.3 mg/kg/injection, schedule: Q01DX009 (ip), vehicle: saline) was 100 % of control and the T/C (dose: 18.75 mg/kg/injection, schedule: Q01DX009 (ip), vehicle: saline) was 102 % of control. The T/C (dose: 37.5 mg/kg/injection, schedule: Q01DX009 (ip), vehicle: saline) was 120 % of control.
In the case of `CCCC(=O)OCc1ccc(Cl)c(Cl)c1`, the T/C (dose: 16.5 mg/kg/injection, schedule: Q04DX003 (ip), vehicle: saline with Tween-80) was 91 % of control, the T/C [9] was 93 % of control and the T/C (dose: 25.0 mg/kg/injection, schedule: Q04DX003 (ip), vehicle: saline with Tween-80) was 102 % of control. The T/C (dose: 37.5 mg/kg/injection, schedule: Q04DX003 (ip), vehicle: saline with Tween-80) was 102 % of control, the T/C [3] was 97 % of control and the T/C (dose: 50.0 mg/kg/injection, schedule: Q04DX003 (ip), vehicle: saline with Tween-80) was 118 % of control. For the same molecule, the T/C [4] was 100 % of control and the T/C [19] was 123 % of control.
`c1ccc2c(c1)nnn1c3cnccc3nc21` was tested, and the T/C (dose: 1.56 mg/kg/injection, schedule: Q01DX009 (ip), vehicle: saline with Tween-80) was 110 % of control, the T/C (dose: 3.12 mg/kg/injection, schedule: Q01DX009 (ip), vehicle: saline with Tween-80) was 97 % of control and 111 % of control and the T/C [17] was 93 % of control and 107 % of control. For the same molecule, the T/C [8] was 106 % of control and 121 % of control.
With `NC(=O)CNC1=C(N2CC2)C(=O)C(NCC(N)=O)=C(N2CC2)C1=O` the T/C (dose: 0.5 mg/kg/injection, schedule: Q01DX009 (ip), vehicle: saline) was 96 % of control, the T/C (dose: 1.0 mg/kg/injection, schedule: Q01DX009 (ip), vehicle: saline) was 115 % of control and the T/C (dose: 4.0 mg/kg/injection, schedule: Q01DX009 (ip), vehicle: saline) was 124 % of control.
For `O=CC(=O)c1ccc(O)cc1`, the T/C [13] was 105 % of control, the T/C [14] was 97 % of control and the T/C [15] was 106 % of control.
In the case of `C=C1C(=O)OC2C1CCC(=C)C1CC(O)C(=C)C12` (stereo unspecified), the T/C (dose: 67.0 mg/kg/injection, schedule: Q01DX009 (ip), vehicle: saline with Tween-80) was 87 % of control and the T/C [4] was 87 % of control.
For `Cc1cc(Cl)ccc1NC(=O)COc1ccc(Cl)cc1`, the T/C [18] was 104 % of control, the T/C [17] was 98 % of control and the T/C [8] was 88 % of control and 95 % of control. The T/C [9] was 93 % of control and the T/C [3] was 91 % of control.
`Cc1nc(-c2ccccc2)nc2c1CCO2` was tested, and the T/C (dose: 33.0 mg/kg/injection, schedule: Q01DX009 (ip), vehicle: saline with Tween-80) was 92 % of control, the T/C [3] was 93 % of control and the T/C (dose: 75.0 mg/kg/injection, schedule: Q01DX009 (ip), vehicle: saline with Tween-80) was 89 % of control. The T/C [4] was 122 % of control.
`COc1cc2c(c(OC)c1OC)-c1ccc(SC)c(=O)cc1[C@@H](NC1OC(CO)C(O)C(O)C1O)CC2` (stereo partly specified) was tested, and the T/C (dose: 100.0 mg/kg/injection, schedule: Q01DX009 (ip), vehicle: saline) was 120 % of control.
With `CC(=O)c1ccccc1OCC(O)CN1CCN(c2cccc(C(F)(F)F)c2)CC1` (stereo unspecified) the T/C [19] was 102 % of control, the T/C [20] was 93 % of control and the T/C (dose: 400.0 mg/kg/injection, schedule: Q04DX003 (ip), vehicle: saline with Tween-80) was 91 % of control.
In the case of `CCC1(CC)COC(=O)NC1=O`, the T/C [13] was 105 % of control, the T/C [14] was 97 % of control and the T/C [15] was 105 % of control. For the same molecule, the T/C [16] was 107 % of control.
`COc1ccc(CCN2C(=O)CSC2=S)cc1OC` was tested, and the T/C [6] was 100 % of control, the T/C [7] was 88 % of control and the T/C [3] was 94 % of control and 98 % of control. The T/C [1] was 89 % of control and 94 % of control, the T/C [4] was 104 % of control and the T/C [19] was 89 % of control. For the same molecule, the T/C [5] was 90 % of control and 94 % of control and the T/C [20] was 94 % of control.
